According to US20230391778A1, “INDOLIN-2-ONE OR PYRROLO -PYRIDIN -2 -ONE DERIVATIVES” (Hoffmann-La Roche Inc., priority 2014, published 2023):

What was measured:
[1] = test system: L-687,414-induced hyperlocomotion; assay: L-687,414-induced hyperlocomotion; format: in vivo, mouse; conditions: Mus musculus; Dose ip 30 mg/kg, mice, 50 mg/kg s.c. L-687,414
Protocol: The described compounds of formula I reduce L-687,414-induced hyperlocomotion. This was assessed by using a computerized Digiscan 16 Animal Activity Monitoring System (Omnitech Electronics, Columbus, Ohio) to quantify locomotor activity. Animals were kept under a 12 h light/dark cycle and experiments were performed during the light period. Each activity monitoring chamber consisted of a Plexiglas box (41×41×28 cm; W×L×H) with sawdust bedding on the floor surrounded by invisible horizontal and vertical infrared sensor beams. The test boxes were divided by a Plexiglas cross providing each mouse with 20×20 cm of moving space. Cages were connected to a Digiscan Analyzer linked to a computer that constantly collected the beam status information. Records of photocell beam interruptions for individual animals were taken every 5 min over the duration of the experimental session and the sum of the first 6 periods was used as the final parameter. At least 8 mice were used in each treatment group. Compounds were administered either p.o. 15 min before a s.c. injection of 50 mg/kg of L-687,414, or i.p. at the same time as a s.c. injection of 50 mg/kg of L-687,414. Mice were then transferred from their home cage to the recording chambers for a 15-min habituation phase allowing free exploration of the new environment. Horizontal activity was then recorded for a 30-min time period. The % inhibition of L-687,414-induced hyperlocomotion was calculated according to the equation:
((Veh+L-687,414 horizontal activity−drug+L-687,414 horizontal activity)/Veh+L-687,414 horizontal activity)×100
ID50 values, defined as doses of each compound producing 50% inhibition of L-687,414-induced hyperlocomotion, were calculated by linear regression analysis of a dose-response data using an Excel-based computer-fitting program.
As data was not presupposed to be normally distributed, groups treated with test compounds were statistically compared with the control (vehicle-treated) group using one-tailed Mann Whitney U tests. In statistics, the Mann-Whitney U test (also called the Mann-Whitney-Wilcoxon (MWW) or Wilcoxon rank-sum test) is a non-parametric statistical hypothesis test for assessing whether one of two samples of independent observations tends to have larger values than the other. It is one of the most well-known non-parametric significance tests. […] P values given in table 1 are one-tailed since only decreases in locomotion were expected and tested for (Mann, H. B., Whitney, D. R. (1947), “On a Test of Whether one of Two Random Variables is Stochastically Larger than the Other”, Annals of Mathematical Statistics, 18 (1), 50-60).

mice = assay: SmartCube behavioral signature similarity analysis; format: in vivo, mouse; set-up: key to discrimination rate vs Clozapine (similarity analysis) / discrimination rate vs Olanzapine (similarity analysis) / discrimination rate vs Risperidone (similarity analysis): fraction; 0.5 = zero distinguishability between the two drugs; conditions: for discrimination rate vs Clozapine (similarity analysis) / discrimination rate vs Olanzapine (similarity analysis) / discrimination rate vs Risperidone (similarity analysis): 5 mg/kg i.p., SmartCube, rate of 0.70 or lower = similar
Description: In addition to the reversal of L-687,414 induced hyperlocomotion experiment as described above, some compounds of the present invention have been tested in SmartCube®, an automated system in which the behaviors of compound-treated mice in response to multiple challenges are captured by digital video and analyzed with computer algorithms (Roberds et al., Frontiers in Neuroscience, 2011, Vol. 5, Art. 103, 1-4; Vadim Alexandrov, Dani Brunner, Taleen Hanania, Emer Leahy Eur. J. Pharmacol. 2015, 750, 82-99). In this way, the neuro-pharmacological effects of a test compound can be predicted by similarity to major classes of compounds, such as antipsychotics, anxiolytics and antidepressants.
As mentioned above, some compounds have been tested in SmartCube©, an analytical system developed by PsychoGenics Inc.
SmartCube® was used to compare the behavioral signature of a test compound to a database of behavioral signatures obtained from a large set of clinically approved reference drugs, grouped per indications. In this way, the neuro-pharmacological effects of a test compound can be predicted by similarity to major classes of compounds, such as antipsychotics, anxiolytics and antidepressants. This approach is ideally suited to screen collections of existing drugs or drug candidates with previously unknown neuropharmacology, which could expedite the development of new and unexpected treatments for psychiatric disorders.
Some compounds of the present invention were injected i.p. at different doses 15 minutes before the test. At least 8 mice were used in each treatment group. Digital videos of the subjects were processed with computer vision algorithms to extract over 2000 dependent measures including frequency and duration of many different behavioral states. The results of the classifications are presented as bar charts for each compound and dose (mg/kg), the Y-axis indicates the relative probability that the test compound will show efficacy in the specific CNS indication.
For comparison, the behavioral signatures of the atypical antipsychotics clozapine, olanzapine and risperidone are shown in FIG. 2. Compounds of the present invention show similar signatures to those of atypical antipsychotics. An independent analysis was performed on the unclassified data to determine the similarity of the example compounds to active doses of known atypical antipsychotics. For this analysis, we use discrimination rate as the measure of separability between the two drugs, i.e. one drug's “distinguishability” from another. A rate equal to 50% (or 0.5) corresponds to zero distinguishability. […] In most cases, the example compounds show a similarity to risperidone, clozapine and olanzapine with a discrimination rate of <0.70.

mouse ENT-1 transporter = molecular target: T1, mouse ENT-1 transporter (Mus musculus, UniProt Q9JIM1); assay: Measure of adenosine transport activity (ENT1 adenosine uptake inhibition); format: cell-based; conditions: stable cells expressing mouse ENT-1, [2,8-3H]-adenosine 6 nM, 20 min
T1 construct: expressed in transfected cells
T1 sequence (Q9JIM1 1-460): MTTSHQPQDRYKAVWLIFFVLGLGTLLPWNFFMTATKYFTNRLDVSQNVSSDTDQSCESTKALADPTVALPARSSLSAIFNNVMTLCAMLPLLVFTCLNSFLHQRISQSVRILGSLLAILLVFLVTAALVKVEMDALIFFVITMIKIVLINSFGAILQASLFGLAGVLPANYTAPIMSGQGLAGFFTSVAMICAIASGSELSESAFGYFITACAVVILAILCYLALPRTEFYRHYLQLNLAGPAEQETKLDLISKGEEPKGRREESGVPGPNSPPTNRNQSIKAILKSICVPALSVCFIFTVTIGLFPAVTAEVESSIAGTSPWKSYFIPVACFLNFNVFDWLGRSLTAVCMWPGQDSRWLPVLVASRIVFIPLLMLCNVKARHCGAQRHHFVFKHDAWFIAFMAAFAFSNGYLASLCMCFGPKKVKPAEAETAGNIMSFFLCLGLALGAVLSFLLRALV
Summary of the method: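 Stable mouse ENT-1 cells, 60,000/well, washed into pH 7.4 Hepes-Tris uptake buffer and incubated at RT with compound (1% DMSO final) for 20 min with shaking. Non-specific uptake defined with 10 μM NBTI; cell-associated radioactivity counted by scintillation after ice-cold washes.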

Row | SMILES | inhibition in vivo at 30 mg/kg [1] | SmartCube similarity to major drug classes (mice) | discrimination rate vs Clozapine (similarity analysis) (mice) | discrimination rate vs Olanzapine (similarity analysis) (mice) | discrimination rate vs Risperidone (similarity analysis) (mice) | IC50 (mouse ENT-1 transporter)
1 | Cc1ncc(-c2ccc3c(c2)N(c2cnc(C)nc2)C(=O)C3(C)C)cn1 [Example 9, 3,3-Dimethyl-1,6-bis(2-methylpyrimidin-5-yl)indolin-2-one] | 93.2% | similarity to atypical antipsychotics | 0.65 | 0.66 | 0.69 | 174 nM
2 | Cc1cc(N2C(=O)C(C)(C)c3ccc(-c4cnc(C)nc4)cc32)c(F)cn1 [Example 25, 1-(5-Fluoro-2-methylpyridin-4-yl)-3,3-dimethyl-6-(2-methylpyrimidin-5-yl)indolin-2-one] |  | similarity to atypical antipsychotics | 0.61 | 0.62 | 0.74 | 
3 | Cc1ccc(N2C(=O)C(C)(C)c3ccc(-c4cnc(C)nc4)cc32)nn1 [Example 48, 3,3-Dimethyl-1-(6-methylpyridazin-3-yl)-6-(2-methylpyrimidin-5-yl)indolin-2-one] |  | similarity to atypical antipsychotics | 0.58 | 0.61 | 0.67 | 55 nM
4 | Cc1cnc(N2C(=O)C(C)(C)c3ccc(-c4cnc(C)nc4)cc32)nc1 [Example 53, 3,3-Dimethyl-1-(5-methylpyrimidin-2-yl)-6-(2-methylpyrimidin-5-yl)indolin-2-one] |  | similarity to atypical antipsychotics | 0.59 | 0.61 | 0.62 | 1520 nM
5 | Cc1ncc(-c2ccc3c(c2)N(c2nccnc2C)C(=O)C3(C)C)cn1 [Example 127, 3,3-dimethyl-1-(3-methylpyrazin-2-yl)-6-(2-methylpyrimidin-5-yl)indolin-2-one] | 72.8% |  |  |  |  | 7730 nM
